# Target: T1, EGFR (Homo sapiens, UniProt P00533)
# T1 construct: The intracellular portion of EGFR started at nucleotide 2189 (corresponding to amino acid 667) and ended at the termination codon; made in house; host or cells: Sf9 insect cells (baculovirus)
# Assay: EGFR Kinase Assay
# Assay type: biochemical
# Details: GST-EGFR intracellular portion, 5 μM ATP
# Excerpt: The EGFR kinase used was a fusion of Glutathione-S-Transferase (GST) and a PCR amplified intracellular portion of EGFR (NM_005228). The intracellular portion of EGFR started at nucleotide 2189 (corresponding to amino acid 667) and ended at the termination codon. The portion was PCR amplified with primers that added the lambda attB sequences to each end, recombined into an entry vector, then into a GST destination vector (as described in Gateway Technologies Manual by Invitrogen Corporation, Carlsbad, Calif.).
# The destination vector was recombined in the DH10BAC strain of bacteria to produce a bacmid. The bacmid was transfected into Sf 9 cells and the supernatant containing the baculovirus was collected. The GSTEGFR protein was purified using large cultures of Sf 9 cells infected with stock virus. After an appropriate period of time, the cells were collected and lysed. The GSTEGFR was then purified from the lysate on Glutathione-Sepharose columns (as described by Amersham Biosciences, Buckinghamshire, United Kingdom).
# The EGFR substrate was prepared by biotinylating polyGluTyr (128 mg) (Sigma, St. Louis, Mo.) in a 1×PBS buffer incubated together with a 12-fold molar excess of Sulfo-NHS-LC-Biotin on ice for at least 2 hrs. The free biotin was separated from the biotinylated polyGluTyr on a gel filtration column.
# A mixture of a 10× kinase buffer (500 mM Tris at pH 8.0, 100 mM Magnesium Chloride and 1 mM Sodium Vanadate), DTT (1 mM final from 500 mM stock), ATP (5 μM final from 10 mM stock), biotinylated polyGluTyr (10 μg/μL stock), γ-^33P ATP (10 μCi/μL stock) and water was added to each well (90 μL/well) of a Streptavidin Flashplate (Perkin Elmer, Wellesley, M A).
# Test compound in 100% DMSO (2 μL) was added to the appropriate wells. Diluted GSTEGFR (1:300 dilution in 50 mM Tris at pH 8.0 and 0.1% bovine serum albumin) (10 μL) was added to the wells to initiate the reactions.
# The plates were incubated at 30° C. for 1 hr with shaking. The reacted contents were removed and the plates were sequentially washed three times with a 1×PBS stop buffer (300 μL without Magnesium and Calcium) and 100 mM EDTA. After the final wash, the same stop buffer (200 μL) was added to the wells. The plates were then sealed and read on the TopCount scintillation counter.
# Test compounds were assayed in triplicate at 16 concentrations at half-log dilutions starting at 200 uM. A maximum and minimum signal for the assay was determined on each plate. The percent inhibition of a test compound was calculated according to the formula
# For a series of test concentrations, the IC50 was derived by graphing percent inhibition against the log of the concentrations tested for a given compound. For those compounds without an IC50, the percent inhibition results are shown at a test concentration of 2 μM.
# T1 sequence (P00533 669-1210 limits assumed): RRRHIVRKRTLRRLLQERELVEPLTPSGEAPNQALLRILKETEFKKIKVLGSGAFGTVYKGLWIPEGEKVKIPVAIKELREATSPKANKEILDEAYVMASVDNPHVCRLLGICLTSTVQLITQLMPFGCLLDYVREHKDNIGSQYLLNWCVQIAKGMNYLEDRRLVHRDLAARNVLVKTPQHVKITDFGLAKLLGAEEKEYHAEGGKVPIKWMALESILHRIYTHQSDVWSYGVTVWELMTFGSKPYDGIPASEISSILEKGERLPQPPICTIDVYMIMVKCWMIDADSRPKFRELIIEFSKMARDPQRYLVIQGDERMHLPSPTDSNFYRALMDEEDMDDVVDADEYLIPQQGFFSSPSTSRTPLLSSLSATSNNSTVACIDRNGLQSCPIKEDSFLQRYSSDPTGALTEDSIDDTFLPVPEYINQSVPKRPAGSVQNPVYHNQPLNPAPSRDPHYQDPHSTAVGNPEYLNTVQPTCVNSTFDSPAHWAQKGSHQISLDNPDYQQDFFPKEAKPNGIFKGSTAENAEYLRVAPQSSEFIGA
row,SMILES,IC50 [pM]
1,"CN(Cc1ccc(NC(=O)c2sc3ncnc(Nc4ccc(F)c(Cl)c4)c3c2N)cc1)C[C@@H]1CCCO1 [Cpd 17, 5-amino-4-(3-chloro-4-fluoro-phenylamino)-thieno[2,3-d]pyrimidine-6-carboxylic acid [4-({methyl-[(2S)-tetrahydro-furan-2-ylmethyl]-amino}-methyl)-phenyl]-amide]",62
2,"CN(Cc1ccc(NC(=O)c2sc3ncnc(Nc4ccc(F)c(Cl)c4)c3c2N)cc1)C[C@H]1CCCO1 [Cpd 16, 5-amino-4-(3-chloro-4-fluoro-phenylamino)-thieno[2,3-d]pyrimidine-6-carboxylic acid [4-({methyl-[(2R)-tetrahydro-furan-2-ylmethyl]-amino}-methyl)-phenyl]-amide]",35
3,"CN(C)Cc1ccc(NC(=O)c2sc3ncnc(Nc4ccc(F)c(Cl)c4)c3c2N)cc1 [Cpd 14, 5-amino-4-(3-chloro-4-fluoro-phenylamino)-thieno[2,3-d]pyrimidine-6-carboxylic acid (4-dimethylaminomethyl-phenyl)-amide]",34
4,"Nc1c(C(=O)Nc2ccc(N3CCOCC3)cc2)sc2ncnc(Nc3ccc(F)c(Cl)c3)c12 [Cpd 10, 5-amino-4-(3-chloro-4-fluoro-phenylamino)-thieno[2,3-d]pyrimidine-6-carboxylic acid (4-morpholin-4-yl-phenyl)-amide]",196
5,"COc1ccc(NC(=O)c2sc3ncnc(Nc4ccc(F)c(Cl)c4)c3c2N)cn1 [Cpd 9, 5-amino-4-(3-chloro-4-fluoro-phenylamino)-thieno[2,3-d]pyrimidine-6-carboxylic acid (6-methoxy-pyridin-3-yl)-amide]",147
6,"Nc1c(C(=O)Nc2ccc(OC(F)(F)F)cc2)sc2ncnc(Nc3ccc(F)c(Cl)c3)c12 [Cpd 7, 5-amino-4-(3-chloro-4-fluoro-phenylamino)-thieno[2,3-d]pyrimidine-6-carboxylic acid (4-trifluoromethoxy-phenyl)-amide]",598
7,"Nc1c(C(=O)Nc2ccc(CN3CCOCC3)cc2)sc2ncnc(Nc3ccc(F)c(Cl)c3)c12 [Cpd 2, 5-amino-4-(3-chloro-4-fluoro-phenylamino)-thieno[2,3-d]pyrimidine-6-carboxylic acid (4-morpholin-4-ylmethyl-phenyl)-amide]",86
8,"COc1ccc(NC(=O)c2sc3ncnc(Nc4ccc(F)c(Cl)c4)c3c2N)cc1 [Cpd 1, 5-amino-4-(3-chloro-4-fluoro-phenylamino)-thieno[2,3-d]pyrimidine-6-carboxylic acid (4-methoxy-phenyl)-amide]",239
9,"CN(CCc1ccc(NC(=O)c2sc3ncnc(Nc4ccc(F)c(Cl)c4)c3c2N)cc1)C1CCOCC1 [Cpd 15, 5-amino-4-(3-chloro-4-fluoro-phenylamino)-thieno[2,3-d]pyrimidine-6-carboxylic acid (4-{2-[methyl-(tetrahydro-pyran-4-yl)-amino]-ethyl}-phenyl)-amide]",64
10,"CN(C)CCCNS(=O)(=O)c1ccc(NC(=O)c2sc3ncnc(Nc4ccc(F)c(Cl)c4)c3c2N)cc1 [Cpd 5, 5-amino-4-(3-chloro-4-fluoro-phenylamino)-thieno[2,3-d]pyrimidine-6-carboxylic acid [4-(3-dimethylamino-propylsulfamoyl)-phenyl]-amide]",43
11,"CC(C)Oc1ccc(NC(=O)c2sc3ncnc(Nc4ccc(F)c(Cl)c4)c3c2N)cc1 [Cpd 8, 5-amino-4-(3-chloro-4-fluoro-phenylamino)-thieno[2,3-d]pyrimidine-6-carboxylic acid (4-isopropoxy-phenyl)-amide]",140
12,"Nc1c(C(=O)Nc2ccc(CN3CCCCC3)cc2)sc2ncnc(Nc3ccc(F)c(Cl)c3)c12 [Cpd 13, 5-amino-4-(3-chloro-4-fluoro-phenylamino)-thieno[2,3-d]pyrimidine-6-carboxylic acid (4-piperidin-1-ylmethyl-phenyl)-amide]",53
13,"COc1ccc(NC(=O)c2sc3ncnc(Nc4ccc(F)c(Cl)c4)c3c2N)cc1OC [Cpd 3, 5-amino-4-(3-chloro-4-fluoro-phenylamino)-thieno[2,3-d]pyrimidine-6-carboxylic acid (3,4-dimethoxy-phenyl)-amide]",109
14,"COc1ccc(CNC(=O)c2sc3ncnc(Nc4ccc(F)c(Cl)c4)c3c2N)cc1OC [Cpd 11, 5-amino-4-(3-chloro-4-fluoro-phenylamino)-thieno[2,3-d]pyrimidine-6-carboxylic acid 3,4-dimethoxy-benzylamide]",177
15,"CN1CCN(Cc2ccc(NC(=O)c3sc4ncnc(Nc5ccc(F)c(Cl)c5)c4c3N)cc2)CC1 [Cpd 18, 5-amino-4-(3-chloro-4-fluoro-phenylamino)-thieno[2,3-d]pyrimidine-6-carboxylic acid [4-(4-methyl-piperazin-1-ylmethyl)-phenyl]-amide]",67
16,"COc1ccc(CCNC(=O)c2sc3ncnc(Nc4ccc(F)c(Cl)c4)c3c2N)cc1OC [Cpd 12, 5-amino-4-(3-chloro-4-fluoro-phenylamino)-thieno[2,3-d]pyrimidine-6-carboxylic acid [2-(3,4-dimethoxy-phenyl)-ethyl]-amide]",220
17,"Nc1c(C(=O)NCCN2CCOCC2)sc2ncnc(Nc3ccc(F)c(Cl)c3)c12 [Cpd 4, 5-amino-4-(3-chloro-4-fluoro-phenylamino)-thieno[2,3-d]pyrimidine-6-carboxylic acid (2-morpholin-4-yl-ethyl)-amide]",606
18,"Nc1c(C(=O)Nc2ccc(Oc3ccccc3)cc2)sc2ncnc(Nc3ccc(F)c(Cl)c3)c12 [Cpd 6, 5-amino-4-(3-chloro-4-fluoro-phenylamino)-thieno[2,3-d]pyrimidine-6-carboxylic acid (4-phenoxy-phenyl)-amide]",741
